A word on the AUC: it is concentration integrated over time. Low readings indicate less exposure, high ones more exposure. As a reminder, the Cmax is the peak of the concentration-time curve. One may read the fraction unbound as free concentration divided by total concentration. A high value points to much free substance. In general, IC50 refers to the midpoint of a concentration-inhibition curve.

The text below walks through data of patent US12221422B2, “Compounds and their use for the treatment of alpha1-antitrypsin deficiency” (CENTESSA PHARMACEUTICALS (UK) LIMITED, priority 2018, dated 2025).

Bounds are passed on as bounds.

The target in data set [1] is T1, human M A1AT (Homo sapiens, UniProt P01009).
T1 construct: expressed in transfected cells; host or cells: HEK-M (HEK-EBNA cells containing the M A1AT plasmid)
T1 sequence (P01009 25-418): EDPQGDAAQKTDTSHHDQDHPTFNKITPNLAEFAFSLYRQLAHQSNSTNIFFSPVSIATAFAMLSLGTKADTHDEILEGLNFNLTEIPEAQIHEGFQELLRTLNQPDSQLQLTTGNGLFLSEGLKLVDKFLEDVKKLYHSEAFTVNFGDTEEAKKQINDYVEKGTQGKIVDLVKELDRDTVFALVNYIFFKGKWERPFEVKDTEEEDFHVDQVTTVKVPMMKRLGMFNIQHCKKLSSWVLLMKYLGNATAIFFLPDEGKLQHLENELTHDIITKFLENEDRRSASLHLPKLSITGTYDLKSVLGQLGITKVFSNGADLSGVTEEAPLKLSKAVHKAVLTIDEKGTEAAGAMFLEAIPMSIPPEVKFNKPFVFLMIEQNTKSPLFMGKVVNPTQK
The experiment in a line: A1AT cell secretion assay using HEK-M cells (ELISA). The format is cell-based. To be noted: 10 μM, 48 h. The method, then: HEK-M cells, a human embryonic kidney cell line stably transfected with the human M A1AT gene, were plated into 96 well plates (3.0×10^5 cells/ml with 200 μl of media/well) overnight at 37° C. in a humidified atmosphere containing 5% CO2. Following incubation cells were washed with 200 μl serum-free media three times and media was replaced with serum-free media containing either vehicle, 10 μM suberanilohydroxamic acid (SAHA) or a compound of the invention (at 10 μM) in replicates of six for 48 h in a 37° C. incubator in a final volume of 200 μl. […]
Briefly, a 96 well plate was coated with human A1AT capture antibody overnight at room temperature (1:180 dilution from stock, 100 μl final volume/well). […] After which, 50 μl stop solution (2M H2SO4) was added and optical density (OD) of each well was read at 450 nm with 570 nm blank subtracted from each well using a microplate reader. A 4 parameter logistic curve was constructed using GraphPad Prism 7 and A1AT concentrations were determined in each sample by interpolation from a standard curve and multiplying by the appropriate dilution factor.
The amount of A1AT secreted from transfected HEK-EBNA cells into the media was measured by ELISA. […]
Background: ELISA stands for enzyme-linked immunosorbent assay.

Data set [2] in a line: Pharmacokinetics in mice. The format is in vivo. Particulars: male C57BI/6 mice. The method, then: N,N-dimethyl-4-((6-oxopyrimidin-1(6H)-yl)methyl)benzamide was administered to male C57BI/6 mice intravenously (2 mg/kg) or orally (10 mg/kg) by gavage. Whole blood diluted with water was prepared from these dosed animals over a time course up to 24 hours post dose to allow blood concentrations of drug to be measured by UPLC-MS/MS.

Data set [3] is described as follows: Pharmacokinetics in rats. To be noted: rat, whole blood, Sprague Dawley rats. The format is in vivo. The method, then: Compounds were administered to Sprague Dawley rats intravenously (2 mg/kg) or orally (10 mg/kg) by gavage. Whole blood diluted with water was prepared from these dosed animals over a time course up to 24 hours post dose to allow blood concentrations of drug to be measured by UPLC-MS/MS.

A short description of data set [4]: Plasma protein binding, human plasma (rapid equilibrium dialysis). The format is in vitro ADME. Particulars: 37° C. The method, then: The extent to which compounds of the invention bound to plasma proteins such as albumin and alpha-1 acid glycoprotein within human, rat or mouse plasma was determined by rapid equilibrium dialysis. Compounds were incubated at 5 μM for 4 hours at 37° C. Plasma protein binding for N,N-dimethyl-4-((6-oxopyrimidin-1(6H)-yl)methyl)benzamide in mouse plasma was 37.3%, in rat plasma was 14.8% and in human plasma was 30.6%.
On the technique in general: In equilibrium dialysis only unbound substance equilibrates across the membrane.

Data set [5] concerns the target T2, CYP 1A2 (Homo sapiens, UniProt P05177).
T2 construct: purchased CYPEX; host or cells: E. coli
T2 sequence (P05177 1-516): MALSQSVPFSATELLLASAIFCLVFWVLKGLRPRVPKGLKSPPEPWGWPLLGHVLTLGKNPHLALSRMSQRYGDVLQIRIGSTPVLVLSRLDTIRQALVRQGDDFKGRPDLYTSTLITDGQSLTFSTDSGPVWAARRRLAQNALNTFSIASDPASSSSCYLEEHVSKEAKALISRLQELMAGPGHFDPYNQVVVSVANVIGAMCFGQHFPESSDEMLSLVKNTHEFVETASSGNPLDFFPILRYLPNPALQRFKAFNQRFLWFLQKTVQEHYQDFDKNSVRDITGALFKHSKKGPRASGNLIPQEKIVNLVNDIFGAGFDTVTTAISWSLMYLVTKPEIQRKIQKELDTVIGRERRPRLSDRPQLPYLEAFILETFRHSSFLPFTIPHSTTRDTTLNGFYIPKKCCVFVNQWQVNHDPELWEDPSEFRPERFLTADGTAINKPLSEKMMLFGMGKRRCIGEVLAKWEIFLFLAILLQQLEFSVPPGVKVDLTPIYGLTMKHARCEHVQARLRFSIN
The experiment in a line: CYP inhibition, E. coli CYPEX membranes. The format is in vitro ADME. Particulars: specific probe substrates. The method, then:
(§1) Using E. coli CYPEX membranes in combination with specific probe substrates, the inhibition of individual CYPs by compounds of the invention using the method described in Weaver et al., 2003, Drug Metab Dispos 31:7, 955-966 was assessed.

Data set [6] addresses T3, CYP 2C19 (Homo sapiens, UniProt P33261).
T3 construct: purchased CYPEX; host or cells: E. coli
The experiment in a line: CYP inhibition, E. coli CYPEX membranes. The format is in vitro ADME. To be noted: specific probe substrates. The method, then: as §1

Data set [7] deals with T4, CYP 2C9 (Homo sapiens, UniProt P11712).
T4 construct: purchased CYPEX; host or cells: E. coli
T4 sequence (P11712 whole entry): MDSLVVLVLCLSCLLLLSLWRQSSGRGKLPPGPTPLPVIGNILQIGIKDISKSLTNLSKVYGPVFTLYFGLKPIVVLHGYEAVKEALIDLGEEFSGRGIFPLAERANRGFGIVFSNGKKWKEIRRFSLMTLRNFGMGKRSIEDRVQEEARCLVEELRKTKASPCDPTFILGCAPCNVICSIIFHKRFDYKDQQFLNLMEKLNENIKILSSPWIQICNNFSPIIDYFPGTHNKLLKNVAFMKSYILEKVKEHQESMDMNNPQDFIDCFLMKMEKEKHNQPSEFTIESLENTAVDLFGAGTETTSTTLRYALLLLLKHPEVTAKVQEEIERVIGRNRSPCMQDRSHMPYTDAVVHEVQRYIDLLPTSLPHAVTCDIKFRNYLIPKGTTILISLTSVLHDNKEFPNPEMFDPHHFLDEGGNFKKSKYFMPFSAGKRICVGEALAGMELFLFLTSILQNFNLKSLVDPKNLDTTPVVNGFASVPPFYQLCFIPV
The experiment in a line: CYP inhibition, E. coli CYPEX membranes. The format is in vitro ADME. Particulars: specific probe substrates. The procedure: as §1

Data set [8] addresses T5, CYP 2D6 (Homo sapiens, UniProt P10635).
T5 construct: purchased CYPEX; host or cells: E. coli
The experiment in a line: CYP inhibition, E. coli CYPEX membranes. Particulars: specific probe substrates. The format is in vitro ADME. The procedure:
as §1

In data set [9] the target is T6, CYP 3A4 (Homo sapiens, UniProt P08684).
T6 construct: purchased CYPEX; host or cells: E. coli
T6 sequence (P08684 whole entry): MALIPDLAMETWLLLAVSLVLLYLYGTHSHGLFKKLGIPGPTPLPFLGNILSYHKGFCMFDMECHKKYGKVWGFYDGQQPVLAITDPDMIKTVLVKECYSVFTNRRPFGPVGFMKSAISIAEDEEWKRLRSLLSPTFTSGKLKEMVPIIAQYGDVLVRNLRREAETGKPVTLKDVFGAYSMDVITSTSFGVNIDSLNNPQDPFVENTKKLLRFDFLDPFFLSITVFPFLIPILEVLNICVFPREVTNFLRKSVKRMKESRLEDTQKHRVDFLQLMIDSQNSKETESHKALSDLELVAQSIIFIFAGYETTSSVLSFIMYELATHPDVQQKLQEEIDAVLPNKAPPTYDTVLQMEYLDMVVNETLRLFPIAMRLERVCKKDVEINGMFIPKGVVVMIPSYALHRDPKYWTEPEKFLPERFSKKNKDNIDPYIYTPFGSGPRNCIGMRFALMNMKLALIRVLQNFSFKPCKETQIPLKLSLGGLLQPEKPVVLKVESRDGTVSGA
The experiment in a line: CYP inhibition, E. coli CYPEX membranes. The format is in vitro ADME. Particulars: specific probe substrates. The method, then:
as §1

The subject of data set [10] is panel of enzymes, ion channels and receptors. The experiment in a line: DiscoverX Safety47 panel. To be noted: at 10 μM. The method, then: Compounds of the invention were tested against the DiscoverX Safety47™ panel. […] No target was inhibited by more than 25% at this concentration.
Setting [11] is: mouse, whole blood, iv 2 mg/kg or oral 10 mg/kg (route not stated), blood.

T3 sequence (P33261 whole entry): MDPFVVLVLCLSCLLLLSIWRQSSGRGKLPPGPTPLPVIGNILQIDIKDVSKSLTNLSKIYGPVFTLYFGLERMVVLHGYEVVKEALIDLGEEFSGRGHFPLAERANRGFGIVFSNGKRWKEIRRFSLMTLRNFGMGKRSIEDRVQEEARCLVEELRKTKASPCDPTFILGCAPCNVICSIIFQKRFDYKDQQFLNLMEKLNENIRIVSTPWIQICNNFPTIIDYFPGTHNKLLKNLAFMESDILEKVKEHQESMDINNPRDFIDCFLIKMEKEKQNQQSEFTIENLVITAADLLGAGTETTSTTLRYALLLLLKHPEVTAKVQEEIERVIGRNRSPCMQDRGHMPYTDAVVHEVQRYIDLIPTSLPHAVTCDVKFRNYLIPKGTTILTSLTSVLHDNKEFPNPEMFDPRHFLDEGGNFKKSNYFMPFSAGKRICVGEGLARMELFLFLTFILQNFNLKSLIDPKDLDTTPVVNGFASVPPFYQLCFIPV
T5 sequence (P10635 whole entry): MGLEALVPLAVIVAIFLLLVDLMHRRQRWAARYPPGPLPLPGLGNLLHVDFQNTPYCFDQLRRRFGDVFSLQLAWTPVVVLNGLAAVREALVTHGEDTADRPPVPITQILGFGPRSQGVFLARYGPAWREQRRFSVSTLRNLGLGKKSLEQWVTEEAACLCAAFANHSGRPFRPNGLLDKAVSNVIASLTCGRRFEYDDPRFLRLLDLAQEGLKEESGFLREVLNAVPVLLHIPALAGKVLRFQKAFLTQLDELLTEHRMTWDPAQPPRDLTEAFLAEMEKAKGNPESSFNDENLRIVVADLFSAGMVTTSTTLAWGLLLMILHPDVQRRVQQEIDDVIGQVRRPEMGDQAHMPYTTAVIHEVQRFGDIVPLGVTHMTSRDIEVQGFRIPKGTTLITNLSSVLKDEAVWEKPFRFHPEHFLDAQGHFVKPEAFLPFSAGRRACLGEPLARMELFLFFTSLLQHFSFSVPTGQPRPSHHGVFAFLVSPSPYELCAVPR

Turning to `CN(C)C(=O)c1ccc(Cn2cnccc2=O)cc1` [N,N-dimethyl-4-((6-oxopyrimidin-1(6H)-yl)methyl)benzamide], the “secretion of M A1AT as measured by ELISA” value in data set [1] is given as “does not stimulate secretion of M A1AT”. Besides, in data set [2] (oral 10 mg/kg vs iv 2 mg/kg), the “Oral Bioavailability (F, AUCINF)” value stood at 73%. The same molecule registered an area under the curve (AUC) in data set [2] (setting [11]) of 15600 ng·h/mL. The AUC(0-inf) in data set [2] (setting [11]) came out at 15600 ng·h/mL; in data set [3] (oral 10 mg/kg, blood, read-out: Oral AUCINF), 16500 ng·h/mL. Moreover, the half-life is 1.9 h in [2] (mouse, whole blood, iv 2 mg/kg or oral 10 mg/kg, read-out: Half-life in blood (t1/2) (converted)) and 0.917 h in [3] (iv 2 mg/kg or oral 10 mg/kg, read-out: Half-life in blood (t1/2)). The clearance stood at 7.8 mL/min/kg in [2] (mouse, whole blood, iv 2 mg/kg or oral 10 mg/kg, read-out: Observed clearance) and 10.6 mL/min/kg in data set [3] (iv 2 mg/kg or oral 10 mg/kg, read-out: Observed clearance). Besides, the Vd in data set [2] (mouse, whole blood, iv 2 mg/kg or oral 10 mg/kg, read-out: Volume of distribution (Vz)) was determined as 1.3 L/kg; in [3] (iv 2 mg/kg or oral 10 mg/kg, read-out: Volume of distribution (Vz)), 0.84 L/kg. Further, the highest concentration (Cmax) in data set [2] (mouse, whole blood, oral 10 mg/kg, blood) amounted to 9310 ng/mL; in [3] (oral 10 mg/kg, blood), 5330 ng/mL. Besides, the bioavailability in data set [3] (oral 10 mg/kg vs iv 2 mg/kg, read-out: Oral Bioavailability (F)) amounted to 104%. Moreover, in data set [4], the fraction unbound at 4 h, 5 μM is 0.694. Further, the IC50 in data set [5], in [6], in data set [7], in data set [8] and in data set [9] was > 50 µM throughout. In [10], the “inhibition of any target of the Safety47 panel” value is recorded as ≤ 25%.
